# Values quoted from earlier work as cited in US20150086650A1 (priority 2012, published 2015).
# Key:
# [1] = rats
smiles,measurement,setting,value
CO/C=C(/C(=O)OC)c1ccccc1Oc1cc(Oc2ccccc2C#N)ncn1 [Azoxystrobin],acute oral LD50,[1],"more than 5,000 mg/kg"
same,inhalation toxicity classification,,toxic by inhalation
